Patent US20110224213A1, “Use of Glutaric Acid Derivatives or the Pharmaceutically Acceptable Salts Thereof as Anti-Arrhythmic Agents” (priority 2008, published 2011)
Counter-ions that a name gives are not always drawn. Like-named read-outs stand apart in the source and are kept apart here. Marks after values point to notes of the source that are not given here.

Columns and labels:
[1] = test system: adrenal arrhythmia in mice; format: in vivo
[2] = test system: occlusive arrhythmia in cats; experiment: Early occlusive arrhythmia in cats (coronary artery ligation)
[3] = test system: aconitic arrhythmia in mice; experiment: animal or person; format: in vivo; details: per/os, mice
Method: Arrhythmia was reproduced according to the method of Ju. I. Vikhlyayev and N. V. Kaverina (1958) [Kaverina N. V., Berdyaev S. Ju., Kuschuk E. P., Paskhina O. E. Methodical indications in respect to a study of the anti-arrhythmic activity of new pharmacological substances. Manual on experimental (pre-clinical) study of new pharmacological substances. Edited by V. P. Fisenko.—Moscow. 2000. Page 210]. Aconitine nitrate was administered to the animals in a dose of 50 μg/kg intravenously.
This model makes it possible to assess the scope of the therapeutic action of the presented compounds and the N-succinyl-D,L-tryptophane dipotassium salt. Assessment of the scope of the therapeutic action was carried out in accordance with the value of the anti-arrhythmic index (AAI), determined as the ratio LD50 upon the oral method of administering to ED50 on an aconitic model of arrhythmia.

[4] = mice, dose 0.05 mg/kg, introduced internally
[5] = mice, dose 0.5 mg/kg, introduced internally

## O=C(O)CCCC(=O)NCCc1ccncc1 [Compound IX]
[1]; [4]
  Animals lethal (%): (80%)
  Animals with AV blockage (%): (100%)
  Animals with ventricular arrhythmia (%): (70%)
  Lifetime: 21 ± 6 min
  Number of animals in groups lethal: 8
  Number of animals in groups with AV blockage: 10
  Number of animals in groups with ventricular arrhythmia: 7
[1]; [5]
  Animals lethal (%): (60%)
  Animals with AV blockage (%): (50%)
  Animals with ventricular arrhythmia (%): (20%)
  Lifetime: 32 ± 4 min
  Number of animals in groups lethal: 6*
  Number of animals in groups with AV blockage: 5
  Number of animals in groups with ventricular arrhythmia: 2*

## CC(C)NCC(O)COc1cccc2ccccc12 (centres unmarked) [Propranolol, propranolol, reference compound]
[1]; mouse, in vivo, 0.1 mg/kg
  Animals with AV blockage (%): (36%)
  Animals with ventricular arrhythmia (%): (29%)
  Lifetime: 20 ± 4 min
  Number of animals in groups with AV blockage: 5*
  Number of animals in groups with ventricular arrhythmia: 4*
[1]; mouse, in vivo, 0.5 mg/kg
  Animals with AV blockage (%): (29%)
  Animals with ventricular arrhythmia (%): (50%)
  Lifetime: 23 ± 4 min
  Number of animals in groups with AV blockage: 4*
  Number of animals in groups with ventricular arrhythmia: 7*
[2]; dose 1.0 mg/kg, intravenously
  Animals died in group: 0
  Animals with ventricular arrhythmia (%): 28%
  Number of animals with ventricular arrhythmia: 2
  Time of occurrence of arrhythmia: 24 ± 1 min

## O=C(O)CCCC(=O)N[C@@H](Cc1c[nH]c2ccccc12)C(=O)O [Compound II, N^α-glutaryl-L-tryptophane]
[1]; [4]
  Animals lethal (%): (50%)
  Animals with AV blockage (%): (0%)
  Animals with ventricular arrhythmia (%): (0%)
  Lifetime: 22 ± 3.4 min
  Number of animals in groups lethal: 7*
  Number of animals in groups with AV blockage: 0*
  Number of animals in groups with ventricular arrhythmia: 0*
[1]; [5]
  Animals lethal (%): (50%)
  Animals with AV blockage (%): (29%)
  Animals with ventricular arrhythmia (%): (0%)
  Lifetime: 19 ± 2.8 min
  Number of animals in groups lethal: 7*
  Number of animals in groups with AV blockage: 4*
  Number of animals in groups with ventricular arrhythmia: 0*
[2]; dose 0.05 mg/kg, intravenously
  Animals died in group: 1
  Animals died in group (%): 14%
  Animals with ventricular arrhythmia (%): 86%
  Number of animals with ventricular arrhythmia: 6
  Time of occurrence of arrhythmia: 17 ± 2 min
[2]; dose 0.5 mg/kg, intravenously
  Animals died in group: 0
  Animals with ventricular arrhythmia (%): 29%
  Number of animals with ventricular arrhythmia: 2
  Time of occurrence of arrhythmia: 17 to 20 min

## O=C(O)CCCC(=O)NCCc1ccccn1 [Compound X]
[1]; [4]
  Animals lethal (%): (70%)
  Animals with AV blockage (%): (70%)
  Animals with ventricular arrhythmia (%): (60%)
  Lifetime: 13 ± 4 min
  Number of animals in groups lethal: 7*
  Number of animals in groups with AV blockage: 7
  Number of animals in groups with ventricular arrhythmia: 6*
[1]; [5]
  Animals lethal (%): (70%)
  Animals with AV blockage (%): (60%)
  Animals with ventricular arrhythmia (%): (30%)
  Lifetime: 27 ± 6 min
  Number of animals in groups lethal: 7*
  Number of animals in groups with AV blockage: 6
  Number of animals in groups with ventricular arrhythmia: 3*

## O=C(O)CCCC(=O)N[C@@H](Cc1c[nH]c2ccccc12)C(=O)O [Compound II mono-sodium salt, mono-sodium salt N^α-glutaryl-L-tryptophane]
[1]; mice, 0.05 and 0.5 mg/kg, introduced internally
  effect on lethality of the test animals: statistically reliably reduced the lethality
[1]; [4]
  Animals lethal (%): (50%)
  Animals with AV blockage (%): (0%)
  Animals with ventricular arrhythmia (%): (0%)
  Lifetime: 22 ± 3.4 min
  Number of animals in groups lethal: 7*
  Number of animals in groups with AV blockage: 0*
  Number of animals in groups with ventricular arrhythmia: 0*
[1]; [5]
  Animals lethal (%): (50%)
  Animals with AV blockage (%): (36%)
  Animals with ventricular arrhythmia (%): (0%)
  Lifetime: 19 ± 2.8 min
  Number of animals in groups lethal: 7*
  Number of animals in groups with AV blockage: 5*
  Number of animals in groups with ventricular arrhythmia: 0*
[1]; mice, introduced internally
  effect on ventricular ectopic complexes: elimination of the ventricular ectopic complexes in all of the test animals

## O=C(O)CCCC(=O)NCCc1c[nH]c2ccccc12 [Compound XIII mono-sodium salt]
[1]; [4]
  Animals lethal (%): (43%)
  Animals with AV blockage (%): (43%)
  Animals with ventricular arrhythmia (%): (36%)
  Lifetime: 17 ± 4 min
  Number of animals in groups lethal: 6*
  Number of animals in groups with AV blockage: 6*
  Number of animals in groups with ventricular arrhythmia: 5*
[1]; [5]
  Animals lethal (%): (36%)
  Animals with AV blockage (%): (29%)
  Animals with ventricular arrhythmia (%): (21%)
  Lifetime: 28 ± 9 min
  Number of animals in groups lethal: 5*
  Number of animals in groups with AV blockage: 4*
  Number of animals in groups with ventricular arrhythmia: 3*

## CCCCc1oc2ccccc2c1C(=O)c1cc(I)c(OCCN(CC)CC)c(I)c1 [Cordaron, amiodaron, reference compound]
[2]; dose 1.0 mg/kg, intravenously
  Animals died in group: 0
  Animals with ventricular arrhythmia (%): 40%
  Number of animals with ventricular arrhythmia: 4
  Time of occurrence of arrhythmia: 21 ± 6 min

## O=C(O)CCCC(=O)NCCc1c[nH]cn1 [Compound IV, glutaryl histamine]
[1]; [4]
  Animals lethal (%): (79%)
  Animals with AV blockage (%): (21%)
  Animals with ventricular arrhythmia (%): (29%)
  Lifetime: 24 ± 3 min
  Number of animals in groups lethal: 11
  Number of animals in groups with AV blockage: 3*
  Number of animals in groups with ventricular arrhythmia: 4*
[1]; [5]
  Animals lethal (%): (100%)
  Animals with AV blockage (%): (29%)
  Animals with ventricular arrhythmia (%): (14%)
  Lifetime: 18 ± 0.8 min
  Number of animals in groups lethal: 14
  Number of animals in groups with AV blockage: 4*
  Number of animals in groups with ventricular arrhythmia: 2*
[1]; mouse, in vivo, 0.05 mg/kg
  effect on life span of the test animals: effectively increased the life span

## O=C([O-])CCC(=O)NC(Cc1c[nH]c2ccccc12)C(=O)[O-].[K+].[K+] (racemic) [N-succinyl-D,L-tryptophane dipotassium salt, reference compound]
[1]; [4]
  Animals lethal (%): (100%)
  Animals with AV blockage (%): (43%)
  Animals with ventricular arrhythmia (%): (43%)
  Lifetime: 16 ± 4 min
  Number of animals in groups lethal: 14
  Number of animals in groups with AV blockage: 6*
  Number of animals in groups with ventricular arrhythmia: 6*
[1]; [5]
  Animals lethal (%): (100%)
  Animals with AV blockage (%): (57%)
  Animals with ventricular arrhythmia (%): (43%)
  Lifetime: 16 ± 4 min
  Number of animals in groups lethal: 14
  Number of animals in groups with AV blockage: 8
  Number of animals in groups with ventricular arrhythmia: 6*
[3]; dose of 50 mg/kg
  animals died after administration of the substance: 50%
[3]; interval of doses 0.05-5 mg/kg
  test animals in which arrhythmia develops: 71-100%
[2]; 23% lethality in the control
  effect on experimental lethality: prevented experimental lethality
[2]; dose 0.05 mg/kg, intravenously
  Animals died in group: 0
  Animals with ventricular arrhythmia (%): 50%
  Number of animals with ventricular arrhythmia: 3
  Time of occurrence of arrhythmia: 19 ± 3 min
[2]; dose 0.5 mg/kg, intravenously
  Animals died in group: 0
  Animals with ventricular arrhythmia (%): 17%
  Number of animals with ventricular arrhythmia: 1
  Time of occurrence of arrhythmia: 21 min
[2]; dose of 0.05 mg/kg, intravenous
  anti-arrhythmic effect: did not demonstrate a reliable anti-arrhythmic effect
